Reference: publication doi:[…]/2021.10.07.463234v2 (biorxiv, 2021)
Counter-ions that a name gives are not always drawn.

Molecular target: SARS-CoV-2 Mac1 (Severe acute respiratory syndrome coronavirus 2, UniProt P0DTD1)
Assay: biochemical
Details: for inhibition at 100 µM: read-out: %inhibition; for %inhibition: 100 µM, inhibitor

Row | SMILES | inhibition at 100 µM [%] | %inhibition [%]
1 | CC[C@H]1OC(=O)[C@H](C)[C@@H](O[C@H]2C[C@@](C)(OC)[C@@H](O)[C@H](C)O2)[C@H](C)[C@@H](O[C@@H]2O[C@H](C)C[C@H](N(C)C)[C@H]2O)[C@](C)(O)C[C@@H](C)[C@@H]2N[C@@H](COCCOC)O[C@H]([C@H]2C)[C@]1(C)O [Dirithromycin] | 28.8 | –
2 | O=C(O)c1cc(=O)c2c(OCC(O)COc3cccc4oc(C(=O)O)cc(=O)c34)cccc2o1 [Disodium Cromoglycate] | 3.63 | –
3 | CC(C)N(CCC(C(N)=O)(c1ccccc1)c1ccccn1)C(C)C (centres unmarked) [Disopyramide Phosphate] | – | 0
4 | CC(C)N(CCC(C(N)=O)(c1ccccc1)c1ccccn1)C(C)C (centres unmarked) [Disopyramide] | – | 8.31
5 | CCN(CC)C(=S)SSC(=S)N(CC)CC [Disulfiram] | – | 0
6 | O=C1c2c(O)cccc2Cc2cccc(O)c21 [Dithranol] | 18.7 | –
7 | CCCC(CCC)C(=O)O [Divalproex Sodium] | – | 5.124
8 | CC(=O)O[C@@]12CO[C@@H]1C[C@H](O)[C@@]1(C)C(=O)[C@H](O)C3=C(C)[C@@H](OC(=O)[C@H](O)[C@@H](NC(=O)OC(C)(C)C)c4ccccc4)C[C@@](O)([C@@H](OC(=O)c4ccccc4)[C@H]21)C3(C)C [Docetaxel Trihydrate] | – | 6.628
9 | CC(=O)O[C@@]12CO[C@@H]1C[C@H](O)[C@@]1(C)C(=O)[C@H](O)C3=C(C)[C@@H](OC(=O)[C@H](O)[C@@H](NC(=O)OC(C)(C)C)c4ccccc4)C[C@@](O)([C@@H](OC(=O)c4ccccc4)[C@H]21)C3(C)C [Docetaxel] | 11.6 | –
10 | CCCCC(CC)COC(=O)CC(C(=O)OCC(CC)CCCC)S(=O)(=O)O (centres unmarked) [Docusate Sodium] | 14.3 | –
11 | CN(CCOc1ccc(NS(C)(=O)=O)cc1)CCc1ccc(NS(C)(=O)=O)cc1 [Dofetilide] | 8.13 | –
12 | O=C(O[C@@H]1C[C@@H]2C[C@H]3C[C@H](C1)N2CC3=O)c1c[nH]c2ccccc12 [Dolasetron] | 7.05 | –
13 | C[C@@H]1CCO[C@H]2Cn3cc(C(=O)NCc4ccc(F)cc4F)c(=O)c(O)c3C(=O)N12 [Dolutegravir (GSK1349572)] | 9.9 | –
14 | CCCCCCCCCCCC[N+](C)(C)CCOc1ccccc1 [Domiphen Bromide] | 0.79 | –
15 | COc1cc2c(cc1OC)C(=O)C(CC1CCN(Cc3ccccc3)CC1)C2 (centres unmarked) [Donepezil HCl] | – | 0
16 | COc1cc2c(cc1OC)C(=O)C(CC1CCN(Cc3ccccc3)CC1)C2 (centres unmarked) [Donepezil] | – | 5.95
17 | NCCc1ccc(O)c(O)c1 [Dopamine HCl] | 39.1 | –
18 | Cc1ccc(-n2nc(C(C)(C)C)cc2NC(=O)Nc2ccc(OCCN3CCOCC3)c3ccccc23)cc1 [Doramapimod (BIRB 796)] | 0 | –
19 | C[C@@H](O)[C@H]1C(=O)N2C(C(=O)O)=C(S[C@@H]3CN[C@H](CNS(N)(=O)=O)C3)[C@H](C)[C@H]12 [Doripenem Hydrate] | – | 0
20 | C[C@@H](O)[C@H]1C(=O)N2C(C(=O)O)=C(S[C@@H]3CN[C@H](CNS(N)(=O)=O)C3)[C@H](C)[C@H]12 [Doripenem] | – | 1.128
21 | CN1CCN(c2ccc3nc(-c4c(N)c5c(F)cccc5[nH]c4=O)[nH]c3c2)CC1 [Dovitinib (TKI258) Lactate] | – | 26.03
22 | CN1CCN(c2ccc3nc(-c4c(N)c5c(F)cccc5[nH]c4=O)[nH]c3c2)CC1 [Dovitinib (TKI-258, CHIR-258)] | – | 50.41
23 | CCN1CC(CCN2CCOCC2)C(c2ccccc2)(c2ccccc2)C1=O (centres unmarked) [Doxapram HCl] | – | 9.802
24 | CCN1CC(CCN2CCOCC2)C(c2ccccc2)(c2ccccc2)C1=O (centres unmarked) [Doxapram] | – | 4.735
25 | COc1cc2nc(N3CCN(C(=O)C4COc5ccccc5O4)CC3)nc(N)c2cc1OC (centres unmarked) [Doxazosin Mesylate] | 14.6 | –
26 | C=C1/C(=C\C=C2/CCC[C@]3(C)[C@@H]([C@H](C)/C=C/[C@H](C)C(C)C)CC[C@@H]23)C[C@@H](O)C[C@@H]1O [Doxercalciferol] | 0 | –
